In patent US20020155565A1, “FAP-activated anti-tumor compounds” (priority 2000, published 2002):
Where a SMILES comes first, the peptide text is derived from it. [ ]: non-standard residue; d: D form. The star is where a group is joined. X1 = Cc1c(CC(=O)O)c(=O)oc2cc(N*)ccc12; Cbz = O=C(OCc1ccccc1)*; NMeA = CN[CH](C)C(=O)O; Sar = CNCC(=O)O

Biological target: T1, FAP (cell extract from 293 cells stably transfected with FAP) (Homo sapiens, UniProt Q12884)
T1 construct: Cell extract from 293 cells stably transfected with FAP prepared as described; expressed in transfected cells; host or cells: human embryonic kidney 293 cells (clone 293-I/2), vector pFAP.38
T1 sequence (Q12884 1-760): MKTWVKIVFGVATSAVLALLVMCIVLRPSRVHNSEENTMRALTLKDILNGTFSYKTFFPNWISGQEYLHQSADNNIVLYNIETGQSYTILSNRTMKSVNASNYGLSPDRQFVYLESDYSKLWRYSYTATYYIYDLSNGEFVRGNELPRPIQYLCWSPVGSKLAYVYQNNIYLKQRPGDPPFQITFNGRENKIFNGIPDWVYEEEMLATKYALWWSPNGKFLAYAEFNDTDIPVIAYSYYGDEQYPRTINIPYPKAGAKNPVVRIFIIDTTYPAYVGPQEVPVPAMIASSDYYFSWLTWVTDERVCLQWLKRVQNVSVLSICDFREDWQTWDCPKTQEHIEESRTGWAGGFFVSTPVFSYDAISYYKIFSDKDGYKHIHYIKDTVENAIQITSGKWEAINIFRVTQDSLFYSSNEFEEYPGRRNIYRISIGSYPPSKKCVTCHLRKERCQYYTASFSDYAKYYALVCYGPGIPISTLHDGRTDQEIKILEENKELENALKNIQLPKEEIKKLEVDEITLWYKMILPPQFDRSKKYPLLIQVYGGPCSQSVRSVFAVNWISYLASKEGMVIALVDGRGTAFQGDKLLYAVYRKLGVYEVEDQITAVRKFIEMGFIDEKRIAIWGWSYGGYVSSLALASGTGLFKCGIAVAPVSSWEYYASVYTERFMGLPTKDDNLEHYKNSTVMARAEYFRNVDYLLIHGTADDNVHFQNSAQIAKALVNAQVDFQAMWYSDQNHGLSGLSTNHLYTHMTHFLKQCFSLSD
Test: Assay for cleavage of AMCA substrates by FAP
Format: biochemical
Details: 1 ng FAP enzyme, 20 μl 2.5 mM substrate in 100 μl, room temperature, 1 hour; FAP-negative 293 control extract subtracted
Procedure: The turnover and cleavage rate have been determined with the aid pf the following assay:
Assay for cleavage of AMCA substrates by FAP
Cell extract from 293 cells stably transfected with FAP prepared as described (see Park, et al., Fibroblast Activation Protein, a Dual Specificity Serine Protease expressed in human tumor stromal fibroblasts. (1999) J. Biol. Chem. 36505-12.). A similar extract was also prepared from parental 293 control cells without FAP. The FAP concentration in the FAP-transfected cell extract was estimated by immunoassay and 1 ng enzyme (diluted in buffer A) was used per assay. FAP-negative 293 control cell extract was used at the same dilution (also in buffer A) as a negative control. Substrate was initially dissolved in dimethylformamide at a concentration of 200 mM and diluted in buffer A to a final concentration of 2.5 mM. A few substrates were not soluble at this concentration and had to be diluted further.
10 μl 10% DMSO in buffer A
70 μl diluted FAP cell extract containing 1 ng FAP enzyme (OR control 293 cell extract without FAP)
Mix, incubate at room temperature for 1 hour, and measure fluorescence in Fluorostar fluorimeter at the following wavelengths:
AMCA conjugates: Excitation: 390 nm, Emission: 440 nm.
The fluorescence measured in the samples treated with control 293 control cell extracts without FAP is subtracted from the values measured in the samples treated with 1 ng FAP enzyme.

Cc1c(CC(=O)O)c(=O)oc2cc(NC(=O)C(C)N(C)C(=O)CNC(=O)C(C)NC(=O)C3CCCN3C(=O)OCc3ccccc3)ccc12 (stereo not drawn) [Z-Pro-Ala-Gly-MeAla-AMCA] (Cbz-PAG[NMeA]-X1; configuration not given here)
Cleavage: 0,11 μM
Turnover: 0,044%

Cc1c(CC(=O)O)c(=O)oc2cc(NC(=O)CN(C)C(=O)CNC(=O)C(C)NC(=O)C3CCCN3C(=O)OCc3ccccc3)ccc12 (stereo not drawn) [Z-Pro-Ala-Gly-Sar-AMCA] (Cbz-PAG[Sar]-X1; configuration not given here)
Cleavage: 0,09 μM
Turnover: 0,036%

Cc1c(CC(=O)O)c(=O)oc2cc(NC(=O)CN(C)C(=O)CNC(=O)OCc3ccccc3)ccc12 [Z-Gly-Sar-AMCA, Z-Gly-Sar-AMCA-OH]
Cleavage: 0,22 μM
Turnover: 0,044%
